Laboratory results: ChEMBL document CHEMBL1155119, “Identification of novel inhibitors of methionyl-tRNA synthetase (MetRS) by virtual screening” (Bioorg Med Chem Lett, 2008)

What was measured:
[1] = Inhibition of Staphylococcus aureus MetRS assessed as decrease in […] incorporation by SPA
[2] = test system: Staphylococcus aureus; experiment: Inhibition of Staphylococcus aureus MetRS assessed as decrease in […] incorporation at 100 uM by SPA
[3] = test system: Staphylococcus aureus; experiment: Inhibition of Staphylococcus aureus MetRS assessed as decrease in […] incorporation at 40 uM by SPA

Row | Structure (SMILES) | IC50 [1] | inhibition [2] | inhibition [3]
1 | NC(=O)[C@H](Cc1ccc(O)cc1)NC(=O)[C@@H]1CCN1/C=C1\N=C(c2ccc(Cl)cc2Cl)OC1=O | 0.07 µM |  | 
2 | O=C(Nc1cccc(O)c1)c1cnn2c1NC(c1ccc(Br)cc1)CC2C(F)(F)F (configuration not stated) | 8.3 µM | 55% | 
3 | COc1ccc(O)c(/C=N/NC(=O)CNC(=O)c2ccc(Cl)cc2)c1 |  | 91% | 35%
4 | O=C(/N=N/c1nc(Nc2ccccc2)nc(N2CCOCC2)n1)Nc1ccc(Cl)cc1 |  | 81% | 34%
5 | O=C(Nc1cccc(Cl)c1)Nc1sc2c(c1-c1nc3ccccc3s1)CCCC2 | 6.3 µM | 80% | 
6 | S=C(Nc1ccccc1)Nc1nc2ccccc2n1CCOc1ccc(Cl)cc1 | 86.8 µM | 67% | 
7 | Nc1nn(CCO)c2cc(-c3ccc(Cl)cc3Cl)ccc12 | 0.57 µM |  | 
8 | O=C(NCc1nc2ccccc2[nH]1)[C@@H]1CC(O)CN1Cc1ccc(Cl)cc1Cl (some centres not stated) | 0.21 µM |  | 
9 | O=c1cc(NCCCNC2CCOc3c(Br)cc(Br)cc32)[nH]c2ccccc12 (configuration not stated) | 0.008 µM |  | 
10 | Cc1ccc(S(=O)(=O)N2CCC(C(=O)N/N=C/c3ccccc3O)CC2)cc1 | 40.8 µM | 61% | 
11 | COc1ccc(O)c(/C=N/NC(=O)CCC(=O)Nc2ccc(Br)cc2)c1 | 41.7 µM | 72% | 
12 | Clc1ccc(-c2ccc(-c3cc(-c4nnn[nH]4)nn3-c3cccnc3)cc2)c(Cl)c1 | 0.13 µM |  | 
13 | O=C(Nc1cc(Cl)ccc1O)c1cnn2c1NC(c1ccc(Br)cc1)CC2C(F)(F)F (configuration not stated) |  | 47% | 
14 | Cc1cc(Cl)ccc1NC(=O)CCC(=O)N/N=C/c1ccccc1O | 94.9 µM | 91% | 
15 | S=C(Nc1ccccc1)Nc1nc2ccccc2n1CCOc1ccccc1Cl | 25.3 µM | 66% | 
16 | O=C(O)c1ccc(OCc2ccc(Cl)cc2Cl)c(OCc2nc3ccccc3[nH]2)c1 | 0.02 µM |  | 
17 | O=C(Nc1cccc(O)c1)c1cnn2c1NC(c1cccs1)CC2C(F)(F)F (configuration not stated) | 5.7 µM | 83% | 

The remaining lines, values ahead:

Row | IC50 [1] | inhibition [2] | inhibition [3] | Structure (SMILES)
18 | 26.6 µM | 80% |  | O=C(CNC(=O)c1ccc(Cl)cc1)N/N=C/c1c(O)ccc2ccccc12
19 | 35.6 µM | 52% |  | O=C(NC(C(=O)N/N=C/c1ccccc1O)c1n[nH]c(=O)c2ccccc12)c1ccccc1 (configuration not stated)
20 | 56 µM | 82% |  | O=C(CSc1nc2ccccc2n1Cc1ccc(Cl)cc1)N/N=C/c1ccccc1O
21 |  | 45% |  | O=C(Cn1nnc(-c2ccccc2)n1)N/N=C/c1ccc(O)cc1O
22 | 4.8 µM | 86% |  | O=C(CCCOc1ccc(Cl)cc1Cl)N/N=C/c1ccccc1O
23 | 46.3 µM | 84% |  | Cc1cccc(C(=O)Nc2nnc(CC(=O)N/N=C/c3ccc(O)cc3O)s2)c1
24 | 11.5 µM | 92% |  | O=C(Nc1ccccc1O)c1cc(C(=O)Nc2ccccc2O)cc(N2C(=O)c3ccccc3C2=O)c1
25 |  | 47% |  | O=C(CSc1ccc2ccccc2n1)N/N=C/c1ccccc1O
26 | 23.6 µM | 77% |  | O=C(Nc1ccccc1C(=O)N/N=C/c1ccccc1O)c1ccc(Cl)cc1
27 |  | 76% | 52% | O=C(CSc1nc2ccccc2n1Cc1ccccc1)N/N=C/c1ccccc1O
28 | 46.5 µM | 87% |  | O=C(N/N=C/c1ccc(O)cc1O)c1cc(-c2ccccc2)nc2ccccc12
